Reference: patent publication US11866450B2, “Modulators of Cystic Fibrosis Transmembrane Conductance regulator, pharmaceutical compositions, methods of treatment, and process for making the modulators” (priority 2018, dated 2024)

Molecular target: CFTR-mediated chloride transport (Homo sapiens, UniProt P13569)
Format: cell-based
Settings: enteroid cells incubated with test compound 18-24 hours, acute 10 μM forskolin and 300 nM Compound III; for Max. Activity: % of chloride transport with 3 μM Compound A, 3 μM Compound II and 300 nM acute Compound III triple combination control
Outline: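 Membrane-potential fluorescence AUC over 15 min quantified CFTR chloride transport after acute forskolin (10 μM), IBMX (100 μM) and Compound III (300 nM) in chloride-free buffer. Human enteroid cells were pretreated with compound for 18–24 h; % Activity is relative to 3 μM Compound A + 3 μM Compound II + 300 nM Compound III.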

Sequence of CFTR-mediated chloride transport (P13569 whole entry, looked up): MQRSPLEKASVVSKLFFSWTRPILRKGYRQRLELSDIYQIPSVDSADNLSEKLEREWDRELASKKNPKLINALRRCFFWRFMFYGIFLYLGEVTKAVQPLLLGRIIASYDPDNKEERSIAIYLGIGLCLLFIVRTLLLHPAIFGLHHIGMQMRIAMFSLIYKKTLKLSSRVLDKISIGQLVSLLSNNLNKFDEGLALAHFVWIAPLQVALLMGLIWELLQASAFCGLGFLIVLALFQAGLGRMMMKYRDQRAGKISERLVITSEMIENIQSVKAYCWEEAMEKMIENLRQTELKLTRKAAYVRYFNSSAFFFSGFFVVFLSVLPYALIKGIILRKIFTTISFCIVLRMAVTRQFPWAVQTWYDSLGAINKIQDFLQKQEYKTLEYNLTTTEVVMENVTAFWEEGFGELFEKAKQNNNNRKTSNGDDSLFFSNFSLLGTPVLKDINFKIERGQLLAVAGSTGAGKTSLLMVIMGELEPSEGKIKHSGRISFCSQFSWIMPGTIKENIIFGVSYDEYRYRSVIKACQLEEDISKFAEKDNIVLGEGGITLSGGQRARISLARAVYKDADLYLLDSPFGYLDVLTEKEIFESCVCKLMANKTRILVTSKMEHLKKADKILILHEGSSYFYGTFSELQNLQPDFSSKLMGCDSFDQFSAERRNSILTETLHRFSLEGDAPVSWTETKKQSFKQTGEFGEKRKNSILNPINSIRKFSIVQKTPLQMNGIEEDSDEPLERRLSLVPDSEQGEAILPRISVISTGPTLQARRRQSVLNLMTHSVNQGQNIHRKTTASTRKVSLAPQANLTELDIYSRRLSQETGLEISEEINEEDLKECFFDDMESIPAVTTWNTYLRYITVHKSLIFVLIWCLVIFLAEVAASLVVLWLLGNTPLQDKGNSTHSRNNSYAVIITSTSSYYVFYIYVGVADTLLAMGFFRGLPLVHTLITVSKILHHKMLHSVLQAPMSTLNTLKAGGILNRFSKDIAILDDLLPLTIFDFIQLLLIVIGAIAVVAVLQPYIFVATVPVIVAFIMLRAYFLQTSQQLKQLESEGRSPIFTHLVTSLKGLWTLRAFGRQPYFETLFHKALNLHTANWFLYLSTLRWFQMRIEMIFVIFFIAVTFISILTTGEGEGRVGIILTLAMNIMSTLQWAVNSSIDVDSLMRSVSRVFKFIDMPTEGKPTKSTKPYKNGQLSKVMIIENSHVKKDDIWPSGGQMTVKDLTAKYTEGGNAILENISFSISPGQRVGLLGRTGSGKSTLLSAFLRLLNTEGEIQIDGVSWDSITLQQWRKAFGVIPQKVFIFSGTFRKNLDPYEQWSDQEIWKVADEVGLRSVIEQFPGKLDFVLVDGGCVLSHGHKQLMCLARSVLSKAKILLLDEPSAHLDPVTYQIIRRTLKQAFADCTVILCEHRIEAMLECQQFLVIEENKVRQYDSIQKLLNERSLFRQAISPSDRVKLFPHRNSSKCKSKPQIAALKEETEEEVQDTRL

SMILES | EC50 [µM] | Max. Activity
Cc1c2cnn1CCCC1CN(c3nc(-n4ccc(OCC(C)(C)C(F)(F)F)n4)ccc3C(=O)NS2(=O)=O)C(C)(C)C1 (stereo not shown) [Compound 280, 20,20,22-trimethyl-4-[3-(3,3,3-trifluoro-2,2-dimethylpropoxy)-1H-pyrazol-1-yl]-10λ^6-thia-1,3,9,13,14-pentaazatetracyclo[16.2.1.111,14.02,7]docosa-2,4,6,11(22),12-pentaene-8,10,10-trione] | < 1 | ++ (++ is 30-60%)
CC1(C)C[C@@H]2CCCNc3cccc(n3)S(=O)(=O)NC(=O)c3ccc(N4CCN(C[C@H]5CC[C@@H](C(F)(F)F)CC5)C4=O)nc3N1C2 (single isomer, unassigned) [Compound 239] | < 1 | + (+ is <30%)
CC1(C)C[C@@H]2CCCNc3cccc(n3)S(=O)(=O)NC(=O)c3ccc(N4CC[C@H](OCC56CC7CC(CC(C7)C5)C6)C4=O)nc3N1C2 (single isomer, unassigned) [Compound 245] | < 1 | +++ (+++ is >60%)
CC1(C)CC[C@H]2CCNc3cccc(n3)S(=O)(=O)NC(=O)c3ccc(-n4ccc(OCCC5(C(F)(F)F)CC5)n4)nc3N21 (single isomer, unassigned) [Compound 117, 8,8-dimethyl-12-(3-{2-[1-(trifluoromethyl)cyclopropyl]ethoxy}-1H-pyrazol-1-yl)-18λ^6-thia-2,9,11,17,23-pentaazatetracyclo[17.3.1.05,9.010,15]tricosa-1(23),10(15),11,13,19,21-hexaene-16,18,18-trione] | < 1 | ++ (++ is 30-60%)
CC1(C)C[C@H]2CCCn3cc(cn3)S(=O)(=O)NC(=O)c3ccc(-n4ccc(OCCC5(C(F)(F)F)CC5)n4)nc3N1C2 (single isomer, unassigned) [Compound 119, 20,20-dimethyl-4-(3-{2-[1-(trifluoromethyl)cyclopropyl]ethoxy}-1H-pyrazol-1-yl)-10λ^6-thia-1,3,9,13,14-pentaazatetracyclo[16.2.1.111,14.02,7]docosa-2,4,6,11(22),12-pentaene-8,10,10-trione] | < 1 | +++ (+++ is >60%)
Cc1ccc2nc1NCCC[C@H]1CN(c3nc(-n4ccc(OCCC5(C(F)(F)F)CC5)n4)ccc3C(=O)NS2(=O)=O)C(C)(C)C1 (single isomer, unassigned) [Compound 114, 12,12,20-trimethyl-8-(3-{2-[1-(trifluoromethyl)cyclopropyl]ethoxy}-1H-pyrazol-1-yl)-2λ^6-thia-3,9,11,18,23-pentaazatetracyclo[17.3.1.111,14.05,10]tetracosa-1(23),5(10),6,8,19,21-hexaene-2,2,4-trione] | > 3 | + (+ is <30%)
CC1(C)C[C@H]2CCCn3ccc(n3)S(=O)(=O)NC(=O)c3ccc(-n4ccc(OCCCC5(C(F)(F)F)CC5)n4)nc3N1C2 (single isomer, unassigned) [Compound 165, 20,20-dimethyl-4-(3-{3-[1-(trifluoromethyl)cyclopropyl]propoxy}-1H-pyrazol-1-yl)-10λ^6-thia-1,3,9,14,22-pentaazatetracyclo[16.2.1.111,14.02,7]docosa-2(7),3,5,11(22),12-pentaene-8,10,10-trione] | > 3 | + (+ is <30%)
[2H]c1ccc2nc1NCCC[C@@H]1CN(c3nc(-n4ccc(OC([2H])([2H])C([2H])([2H])C5C6(CC6)C56CC6)n4)ccc3C(=O)NS2(=O)=O)C(C)(C)C1 [Compound 301, (14S)-8-[3-(2-{dispiro[2.0.2.1]heptan-7-yl}-1,1,2,2-tetradeuterio-ethoxy)-1H-pyrazol-1-yl]-12,12-dimethyl(20-deuterio)-2λ^6-thia-3,9,11,18,23-pentaazatetracyclo[17.3.1.111,14.05,10]tetracosa-1(23),5,7,9,19,21-hexaene-2,2,4-trione] | < 1 | +++ (+++ is >60%)
CC(C)(C)CCO[C@H]1CCN(c2ccc3c(n2)N2C[C@@H](CCCNc4cccc(n4)S(=O)(=O)NC3=O)CC2(C)C)C1=O (single isomer, unassigned) [Compound 170] | < 1 | ++ (++ is 30-60%)
CC1(C)C[C@@H]2CCCNc3cccc(n3)S(=O)(=O)NC(=O)c3ccc(N4CC[C@H](OCCCC5(C(F)(F)F)CC5)C4=O)nc3N1C2 (single isomer, unassigned) [Compound 242] | < 1 | ++ (++ is 30-60%)
CN1CCC[C@H]2CCC(C)(C)N2c2nc(-n3ccc(OCCC4(C(F)(F)F)CC4)n3)ccc2C(=O)NS(=O)(=O)c2cccc1n2 [Compound 10, (15S)-12,12,19-trimethyl-8-(3-{2-[1-(trifluoromethyl)cyclopropyl]ethoxy}-1H-pyrazol-1-yl)-2λ^6-thia-3,9,11,19,24-pentaazatetracyclo[18.3.1.05,10.011,15]tetracosa-1(24),5(10),6,8,20,22-hexaene-2,2,4-trione] | > 3 | + (+ is <30%)
CC1(C)C[C@H]2CCCCNc3cccc(n3)S(=O)(=O)NC(=O)c3ccc(-n4cc(OCCC5(C(F)(F)F)CC5)cn4)nc3N1C2 (single isomer, unassigned) [Compound 82, 12,12-Dimethyl-8-(4-{2-[1-(trifluoromethyl)cyclopropyl]ethoxy}-1H-pyrazol-1-yl)-2λ^6-thia-3,9,11,19,24-pentaazatetracyclo[18.3.1.111,14.05,10]pentacosa-1(23),5,7,9,20(24),21-hexaene-2,2,4-trione] | > 3 | + (+ is <30%)
CC1(C)CC[C@H]2CCNc3cccc(n3)S(=O)(=O)NC(=O)c3ccc(-n4ccc(OCCC5(C(F)(F)F)CC5)n4)nc3N21 (single isomer, unassigned) [Compound 116, 8,8-Dimethyl-12-(3-{2-[1-(trifluoromethyl)cyclopropyl]ethoxy}-1H-pyrazol-1-yl)-18λ^6-thia-2,9,11,17,23-pentaazatetracyclo[17.3.1.05,9.010,15]tricosa-1(23),10(15),11,13,19,21-hexaene-16,18,18-trione] | < 1 | ++ (++ is 30-60%)
CC(C)(C)CCCN1CCN(c2ccc3c(n2)N2C[C@@H](CCCNc4cccc(n4)S(=O)(=O)NC3=O)CC2(C)C)C1=O [Compound 193, (14S)-8-[3-(4,4-dimethylpentyl)-2-oxoimidazolidin-1-yl]-12,12-dimethyl-2λ^6-thia-3,9,11,18,23-pentaazatetracyclo[17.3.1.111,14.05,10]tetracosa-1(22),5,7,9,19(23),20-hexaene-2,2,4-trione] | < 1 | +++ (+++ is >60%)
CC1CN(c2ccc3c(n2)N2C[C@@H](CCCNc4cccc(n4)S(=O)(=O)NC3=O)CC2(C)C)C(=O)C1CCC(C)(C)C (stereo partly drawn) [Compound 97, (14S)-8-[3-(3,3-dimethylbutyl)-4-methyl-2-oxopyrrolidin-1-yl]-12,12-dimethyl-2λ^6-thia-3,9,11,18,23-pentaazatetracyclo[17.3.1.111,14.05,10]tetracosa-1(22),5,7,9,19(23),20-hexaene-2,2,4-trione] | < 1 | +++ (+++ is >60%)
C[C@@H]1CC[C@H]2CN(c3nc(-n4ccc(OCCC5(C(F)(F)F)CC5)n4)ccc3C(=O)NS(=O)(=O)c3cccc(n3)N1)C(C)(C)C2 (single isomer, unassigned) [Compound 58, 12,12,17-trimethyl-8-(3-{2-[1-(trifluoromethyl)cyclopropyl]ethoxy}-1H-pyrazol-1-yl)-2λ^6-thia-3,9,11,18,23-pentaazatetracyclo[17.3.1.111,14.05,10]tetracosa-1(23),5(10),6,8,19,21-hexaene-2,2,4-trione] | < 1 | + (+ is <30%)
Cc1nn2cc1S(=O)(=O)NC(=O)c1ccc(-n3ccc(OCC(C)(C)C(F)(F)F)n3)nc1N1C[C@H](CCC2)CC1(C)C (single isomer, unassigned) [Compound 290, 12,20,20-trimethyl-4-[3-(3,3,3-trifluoro-2,2-dimethylpropoxy)-1H-pyrazol-1-yl]-10λ^6-thia-1,3,9,13,14-pentaazatetracyclo[16.2.1.111,14.02,7]docosa-2,4,6,11(22),12-pentaene-8,10,10-trione] | > 3 | + (+ is <30%)
CC1(C)CC[C@H]2CCCNc3cccc(n3)S(=O)(=O)NC(=O)c3ccc(-n4ccc(OCCC(C5CC5)C5CC5)n4)nc3N21 (single isomer, unassigned) [Compound 137, 8-[3-(3,3-Dicyclopropylpropoxy)-1H-pyrazol-1-yl]-12,12-dimethyl-2λ^6-thia-3,9,11,19,24-pentaazatetracyclo[18.3.1.05,10.011,15]tetracosa-1(23),5(10),6,8,20(24),21-hexaene-2,2,4-trione] | > 3 | + (+ is <30%)
CC(C)(C)CCCO[C@H]1CCN(c2ccc3c(n2)N2C[C@@H](CCCNc4cccc(n4)S(=O)(=O)NC3=O)CC2(C)C)C1=O (single isomer, unassigned) [Compound 246] | < 1 | ++ (++ is 30-60%)
CC(C)(C)CCC1CCN(c2ccc3c(n2)N2C[C@@H](CCCNc4cccc(n4)S(=O)(=O)NC3=O)CC2(C)C)C1=O (stereo partly drawn) [Compound 79, (14S)-8-[3-(3,3-dimethylbutyl)-2-oxopyrrolidin-1-yl]-12,12-dimethyl-2λ^6-thia-3,9,11,18,23-pentaazatetracyclo[17.3.1.111,14.05,10]tetracosa-1(23),5,7,9,19,21-hexaene-2,2,4-trione] | < 1 | ++ (++ is 30-60%)
